From patent US8987195B2 (priority 2012, dated 2015)
Where two headings read alike, the source gives them in different places.

What was measured:
[1] = test system: HCV genotype 1b replicon; test: HCV replicon assay, genotype 1b replicon EC50; format: cell-based, Hepatitis C virus; conditions: Hepatitis C virus, genotype 1b replicon, read-out: EC50 [gt-1b]
In short: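 Assay format: compound titration on stable replicon cells, no G418 during treatment, 24 to 48 hours. Lysates were assayed for replicon RNA (hybridization/protection or TaqMan) or luciferase; EC50 fitted to four parameters against DMSO.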

[2] = biological target: HCV NS3/4A protease genotype 1b (Hepatitis C virus genotype 1b, UniProt P26663); test: HCV NS3/4A protease time-resolved fluorescence (TRF) assay, Ki against genotype 1b; format: biochemical; conditions: IC50 [gt-1b] (nM), NS3/4A genotype 1b, enzyme 0.2 nM
Chain of HCV NS3/4A protease genotype 1b (P26663 1027-1657): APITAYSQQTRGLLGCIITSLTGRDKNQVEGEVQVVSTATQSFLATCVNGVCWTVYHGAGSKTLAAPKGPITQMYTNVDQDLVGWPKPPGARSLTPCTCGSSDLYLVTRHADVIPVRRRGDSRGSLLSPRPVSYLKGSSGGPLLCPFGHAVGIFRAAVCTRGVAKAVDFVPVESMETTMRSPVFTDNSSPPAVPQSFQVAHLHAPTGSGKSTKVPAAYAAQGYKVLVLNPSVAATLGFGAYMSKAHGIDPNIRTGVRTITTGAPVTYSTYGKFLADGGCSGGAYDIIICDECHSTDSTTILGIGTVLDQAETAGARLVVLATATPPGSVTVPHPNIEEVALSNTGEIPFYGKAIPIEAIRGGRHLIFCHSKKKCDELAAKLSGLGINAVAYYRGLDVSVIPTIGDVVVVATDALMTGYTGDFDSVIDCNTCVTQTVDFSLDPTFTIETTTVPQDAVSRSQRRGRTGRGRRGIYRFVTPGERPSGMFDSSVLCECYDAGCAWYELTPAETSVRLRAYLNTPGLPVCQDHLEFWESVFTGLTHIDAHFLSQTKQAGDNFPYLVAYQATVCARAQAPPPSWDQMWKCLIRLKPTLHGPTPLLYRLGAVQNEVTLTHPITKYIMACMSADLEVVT
Chain of HCV NS3/4A protease genotype 1b (P26663 1658-1711): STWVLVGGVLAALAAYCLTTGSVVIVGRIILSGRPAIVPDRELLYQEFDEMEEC
In short: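 Ki values come from IC50 fits corrected for substrate concentration and KM. The time-resolved fluorescence protease reaction used 25 nM peptide substrate, 2.5 h, room temperature, pH 7.5 HEPES buffer, after 30 min enzyme–inhibitor preincubation.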

Compound	EC50 [1]	IC50 [2]	other results
COc1ccc2nc(C(F)F)c3c(c2c1Cl)CC[C@]1(C[C@H]2C(=O)N[C@]4(C(=O)NS(=O)(=O)C5(C)CC5)C[C@H]4/C=C\CCCCC[C@H](NC(=O)OC(C)(C)C)C(=O)N2C1)O3 [Example 28, tert-Butyl [(2R,6S,12Z,13aS,14aR,16aS)-10′-chloro-5′-(difluoromethyl)-9′-methoxy-14a-{[(1-methylcyclopropyl)sulfonyl]carbamoyl}-5,16-dioxo-1,1′,2′,5,6,7,8,9,10,11,13a,14,14a,15,16,16a-hexadecahydrospiro[cyclopropa[e]pyrrolo[1,2-a][1,4]diazacyclopentadecine-2,3′-pyrano[2,3-c]quinolin]-6-yl]carbamate]	14.7 nM	0.016 nM	–
CC(C)(C)OC(=O)N[C@H]1CCCCC/C=C\[C@@H]2C[C@@]2(C(=O)NS(=O)(=O)C2(C)CC2)NC(=O)[C@@H]2C[C@]3(CCc4c(c(C5CC5)nc5ccc6c(c45)OCO6)O3)CN2C1=O [Example 29, tert-butyl (2′R,6′S,13a′S,14a′R,16a′S,Z)-7-cyclopropyl-14a′-(1-methylcyclopropylsulfonylcarbamoyl)-5′,16′-dioxo-3′,5′,6′,7′,8′,9′,10,10′,11,11′,13a′,14′, 14a′,15′,16′,16a′-hexadecahydro-1′H-spiro[[1,3]dioxolo[4,5-f]pyrano[2,3-c]quinoline-9,2′-cyclopropa[e]pyrrolo[1,2-a][1,4]diazacyclopentadecine]-6′-ylcarbamate]	0.608 nM	0.021 nM	–
CC(C)(C)OC(=O)N[C@H]1CCCCC/C=C\[C@@H]2C[C@@]2(C(=O)NS(=O)(=O)C2(C)CC2)NC(=O)[C@@H]2C[C@]3(CCc4c(c(C(F)(F)F)nc5c(Cl)cccc45)O3)CN2C1=O [Example 31, tert-butyl ((2R,6S,13aS,14aR,16aS,Z)-7′-chloro-14a-(((1-methylcyclopropyl)sulfonyl)carbamoyl)-5,16-dioxo-5′-(trifluoromethyl)-1′,2′,3,5,6,7,8,9,10,11,13a,14,14a,15, 16,16a-hexadecahydro-1H-spiro[cyclopropa[e]pyrrolo[1,2-a][1,4]diazacyclopentadecine-2,3′-pyrano[2,3-c]quinolin]-6-yl)carbamate]	1.56 nM	0.02 nM	–
COc1ccc2nc(C(F)(F)F)c3c(c2n1)C(F)C[C@]1(C[C@H]2C(=O)N[C@]4(C(=O)NS(=O)(=O)C5(C)CC5)C[C@H]4/C=C\CCCCC[C@H](NC(=O)OC(C)(C)C)C(=O)N2C1)O3 (stereo partly drawn) [Example 33, tert-butyl ((2S,6S,13aS,14aR,16aS,Z)-10′-fluoro-2′-methoxy-14a-(((1-methylcyclopropyl)sulfonyl)carbamoyl)-5,16-dioxo-6′-(trifluoromethyl)-3,5,6,7,8,9,9′,10,10′, 11,13a,14,14a,15,16,16a-hexadecahydro-1H-spiro[cyclopropa[e]pyrrolo[1,2-a][1,4]diazacyclopentadecine-2,8′-pyrano[2,3-c][1,5]naphthyridin]-6-yl)carbamate]	1.65 nM	0.042 nM	–
COc1ccc2nc(C)c3c(c2c1)CC[C@]1(C[C@H]2C(=O)N[C@]4(C(=O)NS(=O)(=O)C5(C)CC5)C[C@H]4CCCCCCC[C@H](NC(=O)OC(C)(C)C)C(=O)N2C1)O3 [Example 34, tert-Butyl ((2R,6S,13aR,14aR,16aS)-9′-methoxy-5′-methyl-14a-(((1-methylcyclopropyl)sulfonyl)carbamoyl)-5,16-dioxo-1′,2′,3,5,6,7,8,9,10,11,12,13,13a,14,14a,15, 16,16a-octadecahydro-1H-spiro[cyclopropa[e]pyrrolo[1,2-a][1,4]diazacyclopentadecine-2,3′-pyrano[2,3-c]quinolin]-6-yl)carbamate]	1.79 nM	0.013 nM	–
COc1ccc2nc(C)c3c(c2c1)CC[C@]1(C[C@H]2C(=O)N[C@]4(C(=O)NS(=O)(=O)C5(C)CC5)C[C@H]4CCCCCCC[C@H](NC(=O)OC(C)(C)C(F)(F)F)C(=O)N2C1)O3 [Example 35]	–	0.016 nM	EC50 ([1]; GETYPE1B|GT1B): 1.69 nM
CCc1nc2ccc(OC)cc2c2c1O[C@]1(C[C@H]2F)C[C@H]2C(=O)N[C@]3(C(=O)NS(=O)(=O)C4(C)CC4)C[C@H]3/C=C\CCCCC[C@H](NC(=O)OCC(C)(C)C)C(=O)N2C1 [Example 36, Neopentyl((1′R,2S,6S,13aS,14aR,16aS,Z)-5′-ethyl-1′-fluoro-9′-methoxy-14a-(((1-methylcyclopropyl)sulfonyl)carbamoyl)-5,16-dioxo-1′,2′,3,5,6,7,8,9,10,11,13a,14,14a, 15,16,16a-hexadecahydro-1H-spiro[cyclopropa[e]pyrrolo[1,2-a][1,4]diazacyclopentadecine-2,3′-pyrano[2,3-c]quinolin]-6-yl)carbamate]	1.2 nM	0.009 nM	–
CC(C)(C)OC(=O)N[C@H]1CCCCC/C=C\[C@@H]2C[C@@]2(C(=O)NS(=O)(=O)C2(C)CC2)NC(=O)[C@@H]2C[C@]3(CCc4c(c(CN5CCOCC5)nc5ccccc45)O3)CN2C1=O [Example 38, tert-butyl ((2R,6S,13aS,14aR,16aS,Z)-14a-(((1-methylcyclopropyl)sulfonyl)carbamoyl)-5′-(morpholinomethyl)-5,16-dioxo-1′,2′,3,5,6,7,8,9,10,11,13a,14,14a,15,16,16a-hexadecahydro-1H-spiro[cyclopropa[e]pyrrolo[1,2-a][1,4]diazacyclopentadecine-2,3′-pyrano[2,3-c]quinolin]-6-yl)carbamate]	22.1 nM	0.058 nM	–
Cc1nc2ccc(Cl)cc2c2c1O[C@]1(CC2)C[C@H]2C(=O)N[C@]3(C(=O)NS(=O)(=O)C4(C)CC4)C[C@H]3/C=C\CCCCC[C@H](NC(=O)OC(C)(C)C)C(=O)N2C1 [Example 39, tert-Butyl ((2R,6S,13aS,14aR,16aS,Z)-9′-chloro-5′-methyl-14a-(((1-methylcyclopropyl)sulfonyl)carbamoyl)-5,16-dioxo-1′,2′,3,5,6,7,8,9,10,11,13a,14,14a,15,16,16a-hexadecahydro-1H-spiro[cyclopropa[e]pyrrolo[1,2-a][1,4]diazacyclopentadecine-2,3′-pyrano[2,3-c]quuinolin]-6-yl)carbamate]	0.59 nM	0.004 nM	–
Cc1nc2ccc(Cl)cc2c2c1O[C@]1(CC2)C[C@H]2C(=O)N[C@]3(C(=O)NS(=O)(=O)C4(C)CC4)C[C@H]3/C=C\CCCCC[C@H](NC(=O)OCC(C)(C)C)C(=O)N2C1 [Example 40, Neopentyl((2R,6S,13aS,14aR,16aS,Z)-9′-chloro-5′-methyl-14a-(((1-methylcyclopropyl)sulfonyl)carbamoyl)-5,16-dioxo-1′,2′,3,5,6,7,8,9,10,11,13a,14,14a,15,16,16a-hexadecahydro-1H-spiro[cyclopropa[e]pyrrolo[1,2-a][1,4]diazacyclopentadecine-2,3′-pyrano[2,3-c]quinolin]-6-yl)carbamate]	–	–	EC50 ([1]; K+ salt): 5.33 nM; IC50 ([2]; K+ salt): 0.005 nM
Cc1nc2ccc(Cl)cc2c2c1O[C@]1(CC2)C[C@H]2C(=O)N[C@]3(C(=O)NS(=O)(=O)C4(C)CC4)C[C@H]3/C=C\CCCCC[C@H](NC(=O)OCC3(C)CC3)C(=O)N2C1 [Example 41]	–	–	EC50 ([1]; GETYPE1B|GT1B, K+ salt): 16.2 nM; IC50 ([2]; K+ salt): 0.007 nM
Cc1ccc2nc(C)c3c(c2c1)CC[C@]1(C[C@H]2C(=O)NC4(C(=O)NS(=O)(=O)C5(C)CC5)C[C@H]4/C=C\CCCCC[C@H](NC(=O)OC(C)(C)C)C(=O)N2C1)O3 (stereo partly drawn) [Example 42, tert-Butyl (1aR,3aS,3′R,9S,16aS,Z)-5′,9′-dimethyl-1a-(1-methylcyclopropylsulfonylcarbamoyl)-3,8-dioxo-1a,1′,2,2′,3,3a,4,6,8,9,10,11,12,13,14,16a-hexadecahydro-1H -spiro[cyclopropa[e]pyrrolo[1,2-a][1,4]diazacyclopentadecine-5,3′-pyrano[2,3-c]quinoline]-9-ylcarbamate]	2.59 nM	0.008 nM	–
Cc1nc2ccc(F)cc2c2c1O[C@]1(CC2)C[C@H]2C(=O)N[C@]3(C(=O)NS(=O)(=O)C4(C)CC4)C[C@H]3/C=C\CCCCC[C@H](NC(=O)OC(C)(C)C)C(=O)N2C1 [Example 43, tert-Butyl (1aR,3aS,3′R,9S,16aS,Z)-9′-fluoro-5′-methyl-1a-(1-methylcyclopropylsulfonylcarbamoyl)-3,8-dioxo-1a,1′,2,2′,3,3a,4,6,8,9,10,11,12,13,14,16a-hexadecahydro-1H-spiro[cyclopropa[e]pyrrolo[1,2-a][1,4]diazacyclopentadecine-5,3′-pyrano[2,3-c]quinoline]-9-ylcarbamate]	1.25 nM	0.005 nM	–
Cc1nc2c(C(F)(F)F)cccc2c2c1O[C@]1(CC2)C[C@H]2C(=O)N[C@]3(C(=O)NS(=O)(=O)C4(C)CC4)C[C@H]3/C=C\CCCCC[C@H](NC(=O)OC(C)(C)C)C(=O)N2C1 [Example 44, tert-Butyl (1aR,3aS,3′R,9S,16aS,Z)-5′-methyl-1a-(1-methylcyclopropylsulfonylcarbamoyl)-3,8-dioxo-7′-(trifluoromethyl)-1a,1′,2,2′,3,3a,4,6,8,9,10,11,12,13,14,16a-hexadecahydro-1H-spiro[cyclopropa[e]pyrrolo[1,2-a][1,4]diazacyclopentadecine-5,3′-pyrano[2,3-c]quinoline]-9-ylcarbamate]	1.6 nM	0.104 nM	–
